These compounds were tested against T1, α5β2γ2 subtype GABAAR (Homo sapiens, UniProt P18507+P31644) (assay: Positive allosteric modulator activity: potentiation of EC20 GABA current in oocytes). Conditions: read-out: GABA α5 Functional Data (potentiation), @ 100 nM, reported as ranges.
T1 construct: expressed in transfected cells
T1 sequence (P31644 32-462): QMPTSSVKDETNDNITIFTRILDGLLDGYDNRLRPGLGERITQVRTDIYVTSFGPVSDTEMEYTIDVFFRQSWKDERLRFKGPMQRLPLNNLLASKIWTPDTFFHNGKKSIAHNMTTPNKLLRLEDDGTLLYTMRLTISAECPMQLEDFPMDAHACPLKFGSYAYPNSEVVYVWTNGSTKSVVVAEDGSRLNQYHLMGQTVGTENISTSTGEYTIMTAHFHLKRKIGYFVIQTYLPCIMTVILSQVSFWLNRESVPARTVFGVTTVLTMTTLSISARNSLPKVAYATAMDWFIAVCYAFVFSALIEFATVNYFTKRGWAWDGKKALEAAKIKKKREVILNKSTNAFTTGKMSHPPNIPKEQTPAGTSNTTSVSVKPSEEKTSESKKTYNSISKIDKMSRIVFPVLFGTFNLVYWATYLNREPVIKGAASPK
T1 sequence (P47870 25-512 partner limits assumed): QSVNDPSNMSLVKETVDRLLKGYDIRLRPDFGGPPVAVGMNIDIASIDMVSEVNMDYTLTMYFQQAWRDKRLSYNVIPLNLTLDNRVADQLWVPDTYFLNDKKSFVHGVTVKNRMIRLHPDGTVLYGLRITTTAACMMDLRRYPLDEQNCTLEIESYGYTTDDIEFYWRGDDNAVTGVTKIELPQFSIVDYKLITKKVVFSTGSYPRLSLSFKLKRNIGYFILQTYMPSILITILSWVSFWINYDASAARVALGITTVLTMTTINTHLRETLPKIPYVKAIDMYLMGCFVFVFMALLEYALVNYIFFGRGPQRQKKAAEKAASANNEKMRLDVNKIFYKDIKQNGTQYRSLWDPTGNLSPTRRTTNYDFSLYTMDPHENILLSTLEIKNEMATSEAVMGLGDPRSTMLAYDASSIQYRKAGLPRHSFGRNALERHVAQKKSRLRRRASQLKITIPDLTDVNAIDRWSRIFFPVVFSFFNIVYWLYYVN
T1 sequence (P18507 40-467 limits assumed): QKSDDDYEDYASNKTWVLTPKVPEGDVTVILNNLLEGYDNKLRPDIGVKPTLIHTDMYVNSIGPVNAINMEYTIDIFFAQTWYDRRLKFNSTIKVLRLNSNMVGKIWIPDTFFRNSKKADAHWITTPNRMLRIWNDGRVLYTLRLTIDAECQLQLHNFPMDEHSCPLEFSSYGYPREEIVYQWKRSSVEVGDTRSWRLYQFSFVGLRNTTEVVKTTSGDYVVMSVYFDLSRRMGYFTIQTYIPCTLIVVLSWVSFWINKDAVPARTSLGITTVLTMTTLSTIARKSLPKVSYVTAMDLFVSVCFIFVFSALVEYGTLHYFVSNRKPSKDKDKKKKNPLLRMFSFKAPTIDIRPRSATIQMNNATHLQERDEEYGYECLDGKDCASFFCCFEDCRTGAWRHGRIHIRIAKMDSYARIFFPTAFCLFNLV
Type: cell-based
Method: (B) Positive Allosteric Modulator Activity of Test Compounds on α5β2γ2 Subtype GABAAR
On day 1, 1 ng/32 nL of GABAA α5β2γ2 cDNA was injected into one oocyte. Test starts on day 2. The cDNA injected to the oocytes was a mix of alpha, beta and gamma, their ratio is 1:1:10 (by weight) and the total weight of the mixed 3 subunits to be injected in one oocyte was 1 ng in 32 nl volume. The injected oocytes can also be tested on day 3. In such case, the cDNA amount injected to the oocytes should be reduced by 20%.
Compounds of the present invention were tested using the following procedures.
• 1). 8 oocytes were placed in 8 chambers of OpusXpress and superfused with Modified Barth's Saline (MBS) at 3 mL/min. Glass electrodes back-filled with 3M KCl (0.5-3 megaohms) were used.
Control test (Diazepam or methyl 3,5-diphenylpyridazine-4-carboxylate) • 1). New oocytes was used to run new test. • 2). […] Oocytes were washed with MBS for 5-10 min. • 4). […] Itest was divided by IGABA to obtain potentiation (%). Test Compounds at Multiple Doses • 1). Repeat the above steps 1), 2) and 3) in the control test. • 2). […] Divide Itest by IGABA to obtain potentiation (%). • 3). Discard all tested oocytes, new oocytes were used and the above steps 1) and 2) were repeated to test second concentration of the same compound. Each oocyte was used for only one concentration test for a single test compound. The steps were repeated for other test compounds.

`C#Cc1ncn2c1Cn1c(COC)nnc1-c1cc(OC)ccc1-2` [Compound 328, 5-ethynyl-15-methoxy-9-(methoxymethyl)-2,4,8,10,11-pentaazatetracyclo[11.4.0.0^2,^60.0^8,^12]heptadeca-1(17),3,5,9,11,13,15-heptaene] and `C#Cc1ncn2c1Cn1c(COc3cccnc3)nnc1-c1cc(OC)ccc1-2` [Compound 241] fall in the same range of activation at 0.1 µM: 5 to 20% for the first, 5 to 20% for the second.

`FC(F)(F)c1ccc([C@H]2COC(c3ncn4c3Cc3cnnn3-c3cc(Cl)ccc3-4)=N2)cc1` [Compound 362] and `Clc1ccc2c(c1)-n1nncc1Cc1c(C3=N[C@H](c4ccccc4)CO3)ncn1-2` [Compound 358] fall in the same range of activation at 0.1 µM: 20 to 50% for the first, 20 to 50% for the second.

First: Cc1nnn2c1Cc1c(-c3noc(C(C)C)n3)ncn1-c1ccc(F)cc1-2 [Compound 149]
Second: Cc1nnn2c1Cc1c(-c3noc(C(C)C)n3)ncn1-c1ccccc1-2 [Compound 133]
The activation at 0.1 µM of the first is higher: greater than 50% for the first, 5 to 20% for the second.

`COCc1nnc2n1Cc1c(C#CCc3cccc(Cl)c3)ncn1-c1ccc(Cl)cc1-2` [Compound 422] and `COCc1nnc2n1Cc1c(C#CCc3ccccc3)ncn1-c1ccc(Cl)cc1-2` [Compound 346] fall in the same range of activation at 0.1 µM: 20 to 50% for the first, 20 to 50% for the second.

`C#Cc1ccc2c(c1)-c1nnc(COC)n1Cc1c(C3=N[C@@H](c4ccccc4)CO3)ncn1-2` [Compound 301] and `COCc1nnc2n1Cc1c(C3=NC(c4ccccc4)CO3)ncn1-c1ccc(Cl)cc1-2` (stereo not drawn) [Compound 242] fall in the same range of activation at 0.1 µM: 5 to 20% for the first, 5 to 20% for the second.

First: COCc1nnc2n1Cc1c(-c3nc(C(C)C)no3)ncn1-c1ccc(Cl)cc1-2 [Compound 206]
Second: COCc1nnc2n1Cc1c(-c3nc(C(C)C)no3)ncn1-c1ccc(OC)cc1-2 [Compound 130]
The activation at 0.1 µM of the first is lower: 5 to 20% for the first, 20 to 50% for the second.

`COc1ccc2c(c1)-n1nncc1Cc1c(C3=N[C@H](c4ccccc4)CO3)ncn1-2` [Compound 290] and `Clc1ccc2c(c1)-n1nncc1Cc1c(C3=N[C@@H](c4ccccc4)CO3)ncn1-2` [Compound 357] fall in the same range of activation at 0.1 µM: 20 to 50% for the first, 20 to 50% for the second.

`CCOC(=O)c1ncn2c1Cc1c(COc3ccccc3)nnn1-c1cc(OC)ccc1-2` [Compound 9] and `COc1ccc2c(c1)-n1nnc(COc3ccccc3)c1Cc1c(C#N)ncn1-2` [Compound 224] fall in the same range of activation at 0.1 µM: 20 to 50% for the first, 20 to 50% for the second.

First: C#Cc1ncn2c1Cn1c(COc3ccccc3F)nnc1-c1cc(Cl)ccc1-2 [Compound 353, 15-chloro-5-ethynyl-9-(2-fluorophenoxymethyl)-2,4,8,10,11-pentaazatetracyclo[11.4.0.0^2,^60.0^8,^12]heptadeca-1(17),3,5,9,11,13,15-heptaene]
Second: FC(F)c1ncn2c1Cn1c(COc3ccccc3)nnc1-c1cc(Cl)ccc1-2 [Compound 200]
The activation at 0.1 µM of the first is higher: greater than 50% for the first, 5 to 20% for the second.

`COc1ccc2c(c1)-c1nnc(COc3cccnc3)n1Cc1c(-c3noc(C(C)C)n3)ncn1-2` [Compound 176] and `CC(C)c1nc(-c2ncn3c2Cn2c(COc4cccnc4)nnc2-c2cc(F)ccc2-3)no1` [Compound 185] cannot be ordered by activation at 0.1 µM: greater than 50% for the first, greater than 50% for the second.

`COc1ccc2c(c1)-c1nnc(COCc3ccccc3)n1Cc1c(C#N)ncn1-2` [Compound 166] and `COc1ccc2c(c1)-c1nnc(COc3ccccc3)n1Cc1c(C#N)ncn1-2` [Compound 122] fall in the same range of activation at 0.1 µM: 5 to 20% for the first, 5 to 20% for the second.

`COc1ccc2c(c1)-n1nncc1Cc1c(C#Cc3ccccc3C)ncn1-2` [Compound 405] and `Cc1ccccc1C#Cc1ncn2c1Cc1cnnn1-c1cc(Cl)ccc1-2` [Compound 396] fall in the same range of activation at 0.1 µM: 5 to 20% for the first, 5 to 20% for the second.

First: CC(C)c1nc(-c2ncn3c2Cn2c(COc4ccccc4)nnc2-c2cc(F)ccc2-3)no1 [Compound 147]
Second: COc1ccc2c(c1)-c1nnc(COc3ccccc3)n1Cc1c(-c3noc(C(C)C)n3)ncn1-2 [Compound 171]
The activation at 0.1 µM of the first is lower: 20 to 50% for the first, greater than 50% for the second.

Compared with `N#Cc1ncn2c1Cc1c(COc3ccccc3)nnn1-c1cc(Cl)ccc1-2` [Compound 226], `Clc1ccc2c(c1)-c1nnc(COc3ccccc3)n1Cc1c(-c3ncco3)ncn1-2` [Compound 349] is lower in activation at 0.1 µM: 20 to 50% for the first, 5 to 20% for the second.

First: COCc1nnc2n1Cc1c(-c3nc(C)no3)ncn1-c1ccc(Cl)cc1-2 [Compound 198]
Second: COCc1nnc2n1Cc1c(-c3nc(C)co3)ncn1-c1ccc(Cl)cc1-2 [Compound 244]
The activation at 0.1 µM of the first is higher: 20 to 50% for the first, 5 to 20% for the second.

First: COc1ccc2c(c1)-n1nnc(C)c1Cc1c(Br)ncn1-2 [Compound 211]
Second: Cc1noc(-c2ncn3c2Cc2c(C)nnn2-c2cc(F)ccc2-3)n1 [Compound 110]
The activation at 0.1 µM of the first is lower: 5 to 20% for the first, 20 to 50% for the second.

First: Clc1ccc2c(c1)-c1nnc(COCc3ccccc3)n1Cc1c(-c3ncco3)ncn1-2 [Compound 350]
Second: FC(F)(F)COCc1nnc2n1Cc1c(C3=N[C@@H](c4ccccc4)CO3)ncn1-c1ccc(Cl)cc1-2 [Compound 304]
The activation at 0.1 µM of the first is higher: greater than 50% for the first, 5 to 20% for the second.

Compared with `COCc1nnc2n1Cc1c(Br)ncn1-c1ccc(Cl)cc1-2` [Compound 217], `CC#Cc1ncn2c1Cn1c(COC)nnc1-c1cc(Cl)ccc1-2` [Compound 339] is higher in activation at 0.1 µM: 5 to 20% for the first, 20 to 50% for the second.

First: Cc1ccccc1C#Cc1ncn2c1Cn1c(COC(C)C)nnc1-c1cc(Cl)ccc1-2 [Compound 310]
Second: CC(C)OCc1nnc2n1Cc1c(C3=N[C@@H](c4ccc(F)cc4)CO3)ncn1-c1ccc(Cl)cc1-2 [Compound 326]
The activation at 0.1 µM of the first is lower: 5 to 20% for the first, 20 to 50% for the second.

First: COc1ccc2c(c1)-n1nnc(COc3ccc(F)cc3)c1Cc1c(-c3noc(C)n3)ncn1-2 [Compound 180]
Second: COc1ccc2c(c1)-n1nnc(COc3cccc(F)c3)c1Cc1c(-c3noc(C)n3)ncn1-2 [Compound 168]
The activation at 0.1 µM of the first is higher: 20 to 50% for the first, 5 to 20% for the second.

`CCc1nc(-c2ncn3c2Cn2c(COc4ccccc4)nnc2-c2cc(F)ccc2-3)no1` [Compound 158] and `CCOC(=O)c1ncn2c1Cn1c(COc3ccccc3)nnc1-c1cc(OC)ccc1-2` [Compound 55] fall in the same range of activation at 0.1 µM: 20 to 50% for the first, 20 to 50% for the second.

`CCOC(=O)c1ncn2c1Cc1c(Cc3ccc(Cl)cc3)nnn1-c1cc(F)ccc1-2` [Compound 45] and `Fc1ccccc1[C@H]1COC(c2ncn3c2Cc2cnnn2-c2cc(Cl)ccc2-3)=N1` [Compound 360] fall in the same range of activation at 0.1 µM: 20 to 50% for the first, 20 to 50% for the second.

First: COc1ccc2c(c1)-n1nncc1Cc1c(C#CCc3cccc(F)c3)ncn1-2 [Compound 419]
Second: COc1cccc(C#Cc2ncn3c2Cc2cnnn2-c2cc(OC)ccc2-3)c1 [Compound 409]
The activation at 0.1 µM of the first is higher: 20 to 50% for the first, 5 to 20% for the second.

`FC(F)(F)CC#Cc1ncn2c1Cc1cnnn1-c1cc(Cl)ccc1-2` [Compound 398] and `FC(F)(F)c1ccc(C#Cc2ncn3c2Cc2cnnn2-c2cc(Cl)ccc2-3)cc1` [Compound 400] fall in the same range of activation at 0.1 µM: 20 to 50% for the first, 20 to 50% for the second.

First: COc1ccc2c(c1)-c1nnc(COc3cccc(F)c3)n1Cc1c(C#N)ncn1-2 [Compound 196]
Second: COCc1nnc2n1Cc1c(C3=N[C@@H](c4cccc(OC)c4)CO3)ncn1-c1ccc(Cl)cc1-2 [Compound 333]
The activation at 0.1 µM of the first is higher: 20 to 50% for the first, 5 to 20% for the second.

For `COCc1nnc2n1Cc1c(C3=N[C@@H](c4ccc(OC)cc4)CO3)ncn1-c1ccc(Cl)cc1-2` [Compound 332], the activation at 0.1 µM was 5 to 20%.

— patent US12528819B2 (priority 2016, dated 2026)
